Assay results from patent US20090291877A1, “TREATMENTS USING CITRULLINE” (priority 2006, published 2009).

Experiments:
[1] = Plasma nitrotyrosine during 72-h intravenous infusion in ICU patients with severe sepsis/septic shock; assay type: in vivo, human; conditions: 72-h i.v. infusion, compared with placebo
Experimental: (§1) Methods: According to a placebo-controlled double-blind study design, ICU patients with severe sepsis/septic shock (<48 h; APACHE II scores between 18-41) were randomized in a group treated with intravenous 72-h L-arginine-HCl (1.2 μmol/kg·min, n=9) or isocaloric L-alanine (placebo; n=9). All patients were treated with norepinephrine in a range between […] at the start of study. Haemodynamics were recorded at 2-h intervals throughout the protocol. Blood was sampled at baseline and at 24-h intervals and analysed for plasma nitrotyrosine levels. Repeated measurements ANOVA was used; data are means±SEM.

[2] = hemodialysis patients, pre versus post dialysis run; cited from earlier work
[3] = Haemodynamics (MAP, systemic blood pressure, norepinephrine dose) during 72-h intravenous infusion in ICU patients with severe sepsis/septic shock; assay type: in vivo, human; conditions: for MAP: i.v. L-arginine-HCl 1.2 μmol/kg·min, mean ± SEM
Experimental: as §1

## Cl.N=C(N)NCCC[C@H](N)C(=O)O [ARG, L-arginine-HCl]
[1]; listed as Arginine
  Plasma nitrotyrosine (oxidative effect on plasma proteins), arginine versus placebo: does not enhance
[1]; listed as arginine
  Plasma nitrotyrosine (oxidative effect on plasma proteins), arginine versus placebo: did not differ
[2]
  Decrease of level during dialysis treatment: 36%
[3]; 72-h i.v. infusion, compared with placebo
  Norepinephrine dose, arginine versus placebo: No significant differences
[3]; 72-h i.v. infusion, compared with placebo, listed as Arginine
  Systemic blood pressure, arginine versus placebo: does not affect
[3]; 72-h i.v. infusion, compared with placebo, listed as arginine
  Systemic blood pressure, arginine versus placebo: No significant differences
[3]; 24 h
  MAP: 81 ± 3 mmHg
[3]; 48 h
  MAP: 85 ± 4 mmHg
[3]; 72 h
  MAP: 84 ± 5 mmHg
[3]; Baseline
  MAP: 82 ± 4 mmHg
